Test: Plasma pharmacokinetics of BI 187004 after single oral doses (LC–MS/MS)
Conditions: male, human, plasma, po; for concentration at 36 h: planned time 36 h; for concentration at 48 h: planned time 48 h; for concentration at 72 h: planned time 72 h; for concentration at 96 h: planned time 96 h; for concentration at 0.5 h: planned time 0.5 h; for concentration at 1 h: planned time 1 h; for concentration at 1.5 h: planned time 1.5 h; for concentration at 2 h: planned time 2 h; for concentration at 2.5 h: planned time 2.5 h; for concentration at 3 h: planned time 3 h; for concentration at 4 h: planned time 4 h; for concentration at 5 h: planned time 5 h; for concentration at 6 h: planned time 6 h; for concentration at 8 h: planned time 8 h; for concentration at 10 h: planned time 10 h; for concentration at 12 h: planned time 12 h
[1] = 160 mg, BI 187004 plasma concentrations, 160 mg single oral, Max
[2] = 160 mg, BI 187004 plasma concentrations, 160 mg single oral, Mean
[3] = 160 mg, BI 187004 plasma concentrations, 160 mg single oral, Median
[4] = 160 mg, BI 187004 plasma concentrations, 160 mg single oral, Min
[5] = 160 mg, BI 187004 plasma concentrations, 160 mg single oral, gMean
[6] = 240 mg, BI 187004 plasma concentrations, Max, 240 mg single oral
[7] = 240 mg, BI 187004 plasma concentrations, Mean, 240 mg single oral
[8] = 240 mg, BI 187004 plasma concentrations, Median, 240 mg single oral
[9] = 240 mg, BI 187004 plasma concentrations, Min, 240 mg single oral
[10] = 240 mg, BI 187004 plasma concentrations, gMean, 240 mg single oral

**Q.** With `N#Cc1ccc2c(c1)[C@H]1CCCN(C(=O)c3ccc4[nH]cnc4c3)[C@H]1C2` [BI 187004] as the compound, how does the concentration at 36 h [1] read?
**A.** 1390 nM

**Q.** What about the concentration at 36 h [2] of the same compound?
**A.** 716 nM

**Q.** What about the concentration at 36 h [3] of the same compound?
**A.** 604 nM

**Q.** And the concentration at 36 h [4]?
**A.** 476 nM

**Q.** And the concentration at 36 h [5]?
**A.** 669 nM

**Q.** What about the concentration at 48 h [1] of the same compound?
**A.** 1000 nM

**Q.** And the concentration at 48 h [2]?
**A.** 457 nM

**Q.** What about the concentration at 48 h [3] of the same compound?
**A.** 352 nM

**Q.** What about the concentration at 48 h [4] of the same compound?
**A.** 329 nM

**Q.** And the concentration at 48 h [5]?
**A.** 414 nM

**Q.** What about the concentration at 72 h [1] of the same compound?
**A.** 312 nM

**Q.** What about the concentration at 72 h [2] of the same compound?
**A.** 139 nM

**Q.** What about the concentration at 72 h [3] of the same compound?
**A.** 108 nM

**Q.** And the concentration at 72 h [4]?
**A.** 85.9 nM

**Q.** And the concentration at 72 h [5]?
**A.** 125 nM

**Q.** And the concentration at 96 h [1]?
**A.** 46.8 nM

**Q.** What about the concentration at 96 h [2] of the same compound?
**A.** 33.8 nM

**Q.** What about the concentration at 96 h [3] of the same compound?
**A.** 31.7 nM

**Q.** And the concentration at 96 h [4]?
**A.** 28 nM

**Q.** What about the concentration at 96 h [5] of the same compound?
**A.** 33.2 nM

**Q.** What about the concentration at 96 h (160 mg, BI 187004 plasma concentrations, 160 mg single oral, individual subjects) of the same compound?
**A.** 30.2 nM

**Q.** What about the concentration at 24 h (160 mg, C24 gMean (%gCV), 160 mg single oral dose) of the same compound?
**A.** 1630 nM

**Q.** And the AUC(0-inf) (240 mg)?
**A.** 109 µM·h

**Q.** And the AUC(0-t) (240 mg)?
**A.** 71.7 µM·h

**Q.** And the Cmax (240 mg)?
**A.** 7120 nM

**Q.** And the Tmax (240 mg)?
**A.** 1 h

**Q.** What about the Vd/F (240 mg) of the same compound?
**A.** 124 L

**Q.** And the half-life (240 mg)?
**A.** 13.4 h

**Q.** What about the concentration at 24 h (240 mg, BI 187004 plasma concentrations, 240 mg single oral, planned time 24 h, individual subjects) of the same compound?
**A.** 2180 nM

**Q.** And the concentration at 0.5 h [6]?
**A.** 8440 nM

**Q.** And the concentration at 1 h [6]?
**A.** 10700 nM

**Q.** And the concentration at 1.5 h [6]?
**A.** 9030 nM

**Q.** What about the concentration at 2 h [6] of the same compound?
**A.** 9220 nM

**Q.** And the concentration at 2.5 h [6]?
**A.** 8510 nM

**Q.** And the concentration at 3 h [6]?
**A.** 6980 nM

**Q.** What about the concentration at 4 h [6] of the same compound?
**A.** 8420 nM

**Q.** And the concentration at 5 h [6]?
**A.** 6780 nM

**Q.** What about the concentration at 6 h [6] of the same compound?
**A.** 6370 nM

**Q.** And the concentration at 8 h [6]?
**A.** 5380 nM

**Q.** What about the concentration at 10 h [6] of the same compound?
**A.** 5800 nM

**Q.** What about the concentration at 12 h [6] of the same compound?
**A.** 3900 nM

**Q.** And the concentration at 24 h (240 mg, BI 187004 plasma concentrations, Max, 240 mg single oral, planned time 24 h)?
**A.** 2630 nM

**Q.** And the concentration at 36 h [6]?
**A.** 1340 nM

**Q.** What about the concentration at 48 h [6] of the same compound?
**A.** 794 nM

**Q.** What about the concentration at 72 h [6] of the same compound?
**A.** 323 nM

**Q.** What about the concentration at 96 h [6] of the same compound?
**A.** 181 nM

**Q.** And the concentration at 0.5 h [7]?
**A.** 5210 nM

**Q.** And the concentration at 1 h [7]?
**A.** 7490 nM

**Q.** And the concentration at 1.5 h [7]?
**A.** 6420 nM

**Q.** And the concentration at 2 h [7]?
**A.** 6260 nM

**Q.** And the concentration at 2.5 h [7]?
**A.** 6300 nM

**Q.** What about the concentration at 3 h [7] of the same compound?
**A.** 5150 nM

**Q.** What about the concentration at 4 h [7] of the same compound?
**A.** 5510 nM

**Q.** What about the concentration at 5 h [7] of the same compound?
**A.** 4780 nM

**Q.** What about the concentration at 6 h [7] of the same compound?
**A.** 4330 nM

**Q.** What about the concentration at 8 h [7] of the same compound?
**A.** 3850 nM

**Q.** And the concentration at 10 h [7]?
**A.** 3450 nM

**Q.** What about the concentration at 12 h [7] of the same compound?
**A.** 2590 nM

**Q.** And the concentration at 24 h (240 mg, BI 187004 plasma concentrations, Mean, 240 mg single oral, planned time 24 h)?
**A.** 2170 nM

**Q.** And the concentration at 36 h [7]?
**A.** 926 nM

**Q.** What about the concentration at 48 h [7] of the same compound?
**A.** 508 nM

**Q.** And the concentration at 72 h [7]?
**A.** 157 nM

**Q.** What about the concentration at 96 h [7] of the same compound?
**A.** 63.9 nM

**Q.** And the concentration at 0.5 h [8]?
**A.** 5530 nM

**Q.** What about the concentration at 1 h [8] of the same compound?
**A.** 8430 nM

**Q.** What about the concentration at 1.5 h [8] of the same compound?
**A.** 6890 nM

**Q.** What about the concentration at 2 h [8] of the same compound?
**A.** 6780 nM

**Q.** And the concentration at 2.5 h [8]?
**A.** 7270 nM

**Q.** And the concentration at 3 h [8]?
**A.** 5840 nM

**Q.** And the concentration at 4 h [8]?
**A.** 5680 nM

**Q.** And the concentration at 5 h [8]?
**A.** 5430 nM

**Q.** And the concentration at 6 h [8]?
**A.** 5270 nM

**Q.** And the concentration at 8 h [8]?
**A.** 4370 nM

**Q.** And the concentration at 10 h [8]?
**A.** 3700 nM

**Q.** What about the concentration at 12 h [8] of the same compound?
**A.** 2890 nM

**Q.** And the concentration at 24 h (240 mg, BI 187004 plasma concentrations, Median, 240 mg single oral, planned time 24 h)?
**A.** 2320 nM

**Q.** And the concentration at 36 h [8]?
**A.** 887 nM

**Q.** And the concentration at 48 h [8]?
**A.** 461 nM

**Q.** And the concentration at 72 h [8]?
**A.** 98.9 nM

**Q.** And the concentration at 96 h [8]?
**A.** 36.4 nM

**Q.** What about the concentration at 0.5 h [9] of the same compound?
**A.** 130 nM

**Q.** What about the concentration at 1 h [9] of the same compound?
**A.** 440 nM

**Q.** What about the concentration at 1.5 h [9] of the same compound?
**A.** 811 nM

**Q.** And the concentration at 2 h [9]?
**A.** 543 nM

**Q.** And the concentration at 2.5 h [9]?
**A.** 605 nM

**Q.** What about the concentration at 3 h [9] of the same compound?
**A.** 388 nM

**Q.** And the concentration at 4 h [9]?
**A.** 575 nM

**Q.** And the concentration at 5 h [9]?
**A.** 494 nM

**Q.** What about the concentration at 6 h [9] of the same compound?
**A.** 452 nM

**Q.** And the concentration at 8 h [9]?
**A.** 181 nM

**Q.** And the concentration at 10 h [9]?
**A.** 313 nM

**Q.** And the concentration at 12 h [9]?
**A.** 258 nM

**Q.** What about the concentration at 24 h (240 mg, BI 187004 plasma concentrations, Min, 240 mg single oral, planned time 24 h) of the same compound?
**A.** 1530 nM

**Q.** What about the concentration at 36 h [9] of the same compound?
**A.** 567 nM

**Q.** What about the concentration at 48 h [9] of the same compound?
**A.** 255 nM

**Q.** And the concentration at 72 h [9]?
**A.** 54.1 nM

**Q.** What about the concentration at 96 h [9] of the same compound?
**A.** 15.8 nM

**Q.** And the concentration at 0.5 h [10]?
**A.** 3180 nM

**Q.** What about the concentration at 1 h [10] of the same compound?
**A.** 5340 nM

**Q.** And the concentration at 1.5 h [10]?
**A.** 5150 nM

**Q.** And the concentration at 2 h [10]?
**A.** 4710 nM

**Q.** What about the concentration at 2.5 h [10] of the same compound?
**A.** 4840 nM

**Q.** And the concentration at 3 h [10]?
**A.** 3840 nM

**Q.** What about the concentration at 4 h [10] of the same compound?
**A.** 4280 nM

**Q.** What about the concentration at 5 h [10] of the same compound?
**A.** 3700 nM
